The text below walks through data of US11518823B2, “Photoinitiators for light-curable compositions” (priority 2017, dated 2022).

The subject of data set [1] is mouse fibroblast cell line L929. The data set is classed as cell-based. An excerpt:
This may constitute an additional advantage for biological applications in which hydrogels are commonly used.

Data set [2] can be described thus: photo-DSC of hydrogel formulation with PEG700DA and 50 wt % water. The protocol: (§1) In the following examples, of the inventive use of compounds of formula (I) as photo-initiators, reaction mixtures containing the respective photoinitiator, the specified liquid monomer and optionally a specified co-intiator were produced and cured for 10 min under a nitrogen atmosphere by exposure to an OmniCure® S2000 mercury lamp having a wave length filter of 320 to 500 nm and an UV light intensity of 1 W/cm^2, while the progress of the reactions was monitored by photo-DSC type NETSCH DSC 204 F1 Phoenix.
(§2) All measurements were carried out at least twice, the respective tables showing the average values for the respective initiators.
(§3) In the tables, RP represents the polymerization rate and is thus an indicator of the reactivity of a system. A high value means that many monomer groups are reacted at the same time and that the curing process is generally shorter. tmax is the time (in s) it takes until maximum heat development is reached and is thus an indicator of how long it takes to reach the gelling point and thus a certain initial solidity. Short times are thus more desirable. t95% is the time (in s) after which 95% of the entire reaction heat have been released and is thus an indicator of the rate at which a reaction occurs, lower values again being advantageous. DBC is the double bond conversion rate calculated based on the reaction heat released during polymerization (in J per g) of the respective formulation. For the conversion rate, it is desirable to achieve values that are as high as possible.
(§4) In all formulations, the respective photoinitiator was used in an equimolar amount with respect to 1 wt % of ethyl pyruvate (1), which was the initiator having the lowest molecular weight, and weighed in accordingly, and co-initiators, if contained, were weighed in equimolar amounts with respect to the respective initiator. Subsequently, 12±0.5 mg of the reaction mixtures were weighed into DSC aluminum pans, and the pans were covered with cover glasses.
(§5) PBQ was used as a commercially available reference initiator, with MDEA as a co-initiator. The ketoesters ethyl pyruvate (1) and dimethylfurandione (8) can be used as novel initiators without any co-initiator. Due to its longwave absorption maximum (λmax=378 nm instead of 330 nm for compound (1)), compound (8) can also be used using visible light which is harmless for cells.

Data set [3] in a line: photo-DSC monitoring of photopolymerization in dental dimethacrylate mixture. Conditions: monomer DDM, co-initiator DMAB (Table 7). The protocol: All measurements were carried out at least twice, the respective tables showing the average values for the respective initiators. In the tables, RP represents the polymerization rate and is thus an indicator of the reactivity of a system. A high value means that many monomer groups are reacted at the same time and that the curing process is generally shorter. tmax is the time (in s) it takes until maximum heat development is reached and is thus an indicator of how long it takes to reach the gelling point and thus a certain initial solidity. Short times are thus more desirable. t95% is the time (in s) after which 95% of the entire reaction heat have been released and is thus an indicator of the rate at which a reaction occurs, lower values again being advantageous. DBC is the double bond conversion rate calculated based on the reaction heat released during polymerization (in J per g) of the respective formulation. For the conversion rate, it is desirable to achieve values that are as high as possible. In all formulations, the respective photoinitiator was used in an equimolar amount with respect to 1 wt % of ethyl pyruvate (1), which was the initiator having the lowest molecular weight, and weighed in accordingly, and co-initiators, if contained, were weighed in equimolar amounts with respect to the respective initiator. […] In this group of experiments, the experiments from Examples 1 to 4 and Comparative Example 1 were repeated, using a di-methacrylate mixture from the field of dental engineering as a monomer instead of the diacrylate that had been used above.

Data set [4] in a line: photo-DSC monitoring of photopolymerization in hexanediol diacrylate. The conditions noted are these: monomer HDDA. How it is done:
as §1, §2, §3, §4

The nature of data set [5]: photo-DSC monitoring of photopolymerization in divinyl adipate. Conditions: monomer DVA, co-initiator DMAB. The protocol:
In the following examples, of the inventive use of compounds of formula (I) as photo-initiators, reaction mixtures containing the respective photoinitiator, the specified liquid monomer and optionally a specified co-intiator were produced and cured for 10 min under a nitrogen atmosphere by exposure to an OmniCure® S2000 mercury lamp having a wave length filter of 320 to 500 nm and an UV light intensity of 1 W/cm^2, while the progress of the reactions was monitored by photo-DSC type […]1 Phoenix. All measurements were carried out at least twice, the respective tables showing the average values for the respective initiators. In the tables, RP represents the polymerization rate and is thus an indicator of the reactivity of a system. A high value means that many monomer groups are reacted at the same time and that the curing process is generally shorter. tmax is the time (in s) it takes until maximum heat development is reached and is thus an indicator of how long it takes to reach the gelling point and thus a certain initial solidity. Short times are thus more desirable. t95% is the time (in s) after which 95% of the entire reaction heat have been released and is thus an indicator of the rate at which a reaction occurs, lower values again being advantageous. DBC is the double bond conversion rate calculated based on the reaction heat released during polymerization (in J per g) of the respective formulation. For the conversion rate, it is desirable to achieve values that are as high as possible. In all formulations, the respective photoinitiator was used in an equimolar amount with respect to 1 wt % of ethyl pyruvate (1), which was the initiator having the lowest molecular weight, and weighed in accordingly, and co-initiators, if contained, were weighed in equimolar amounts with respect to the respective initiator. Subsequently, 12±0.5 mg of the reaction mixtures were weighed into DSC aluminum pans, and the pans were covered with cover glasses.

The nature of data set [6]: longwave absorption maximum. The data set is classed as physicochemical.
Source text: as §5

Data set [7] can be described thus: curing test in silicone mold, Intelli-Ray 400 W UV oven. Conditions: 1 g HDDA with 1 wt % initiator, 100% power, after a few seconds.
[8] abbreviates: no co-initiator listed (Table 3).

Structures are written as SMILES.

With `CN(C)CC(O)COc1ccc(C(=O)c2ccccc2)cc1.Cl` (centres unmarked) [BPQ, 3-(4-benzoylphenoxy)-2-hydroxy-N,N-dimethylpropane-1-amine Hydrochloride, reference compound], in data set [1], the “concentration at which significant toxic effects were observed” value came to 8000 µM. In data set [2] (co-initiator MDEA), the DBC is 50%, the “RP (polymerization rate)” value turned out to be 30 mmol/L/s and the t95% was 87 s.

Take `CCOC(=O)C(C)=O` [Compound 1, 2-Oxopropanoic Acid Ethyl Ester]: in data set [3], the DBC is 57%, the “RP (polymerization rate)” value was found to be 74.5 mmol/L/s and the t95% amounted to 83.0 s. Also, in data set [2] (without co-initiator), the DBC is 48%, the “RP (polymerization rate)” value came out at 33 mmol/L/s and the t95% was 83 s. Moreover, in data set [4] (co-initiator DMAB), the “DBC (double bond conversion)” value is listed as 66.5%, the “RP (polymerization rate)” value was 230 mmol/L/s and the “t95% (time after which 95% of reaction heat released)” value is on record as 41.7 s. Besides, in data set [4] (setting [8]), the DBC was 69.3%, the “RP (polymerization rate)” value is 210 mmol/L/s and the t95% is on record as 56.0 s. In data set [5], this molecule returned an Area of 466 J/g and a DSC of 1.7 mW · mg^−1. In data set [6], the “longwave absorption maximum λmax” value amounted to 330 nm.

For the molecule `CC(=O)C(=O)OCCN(C)C` [Compound 10, N,N′-dimethylaminopyruvate], the “result of curing test” value in data set [7] is reported as “transparent, hard sample rod was obtained”.
